# “And” between values parts separate entries of the source, which are not always exact repeats. Identical values can stand only once.
# Tests used:
# REGγ-20S proteasome = REGγ-20S proteasome (Homo sapiens, UniProt P25786+P25788); experiment: Peptidyl substrate LLVY/LRR degradation assay, REGγ-activated 20S proteasome; assay type: biochemical
# Method: The reaction mixture contained the indicated combinations of 20S proteasome (0.125 μg), 11S (0.0625 μg), and RLY01 (20 μM). This mixture was incubated on ice for 45 minutes in buffer (10 mM Tris-HCl, 10 mM KCl, 4% glycerol, 1 mM DTT). Then, peptidyl substrates (Suc-LLVY-AMC/Boc-LRR-AMC) were incubated for 15–20 minutes in the mixture in a 37°C thermostatic fluorescence spectrophotometer. The amount of AMC during the reaction was measured fluorometrically (excitation of 360 nm and emission of 460 nm for AMC) with a fluorescence spectrophotometer. Proteasome activity was assayed in the presence of the indicated peptides and proteins and normalized by setting to 100% the value obtained in the presence of 20S proteasome and 11S. The respective final concentrations of the 20S proteasome and REGγ or REGα were set up so that the peptidase activities were not fully activated (i.e., 11S was limiting in the assay). At the final concentration used for RLY01, the inhibitory effect was maximal. Peptides used were substrates of the following peptidase activities of the 20S proteasome: chymotrypsin-like activity, Suc-LLVY-AMC (LLVY); trypsin-like activity, Boc-LRR-AMC (LRR).
# [1] = molecular target: T1, interaction between REGγ and α7 (Homo sapiens, UniProt P25786+P25788); experiment: Co-IP of REGγ and α7 with RLY01; assay type: biochemical; conditions: FLAG-REGγ in HCT116-KO cell lysates, 12 hours in vitro
# T1 construct: expressed in transfected cells; host or cells: HCT116-KO (REGγ knockout) cells, lysate treated in vitro
# Method: Cells were washed with PBS and lysed with RIPA lysis buffer (50 mM Tris-HCl [pH 7.5], 150 mM NaCl, 1% NP-40, and 0.1% SDS). Cell lysates were then centrifuged for 20 minutes at 13,400g at 4°C. To immunoprecipitate protein, 10% of supernatant was reserved as the input, and the rest was incubated with beads for 6–12 hours at 4°C. The beads were washed 3 times with washing buffer (150 mM NaCl, 50 mM Tris-HCl [pH 7.5], 10% glycerol, 1 mM EDTA). After centrifugation, the beads were boiled in SDS loading buffer, followed by Western blotting.
# p21 = p21 protein stability screen in HeLa cells (Western blot); assay type: cell-based; conditions: listed as compound 85
# Method: Thus, on the basis of this pocket (Figure 4B), a structure-based virtual screen of the 220,000 compounds in the SPECS library (https://www.specs.net) was carried out. We selected 100 candidate compounds with diverse chemical scaffolds from among the top 2,000 candidate compounds with the highest docking scores (Supplemental Figure 6A) and then devised a screening pipeline to assess their binding efficacy. Initially, the ability of the 100 selected compounds to increase the protein stability of p21, which is degraded in a REGγ-dependent manner, in HeLa cells at an initial concentration of 30 μM was evaluated. The top 2 compounds (compounds 85 and 98) were considered hits (Supplemental Figure 6, B and C) and subsequently subjected to a rescreening process using a cell-free proteolysis assay to determine whether they could selectively interfere with peptidase activity stimulated directly by REGγ (Figure 4C). […] Ultimately, RLY01 (Figure 4E) emerged as the top candidate owing to its specific effects and ability to inhibit REGγ-dependent proteasome substrate hydrolysis in vitro.
# Protein extracts were loaded onto SDS polyacrylamide gels. Gels were transferred onto nitrocellulose membranes, and the membranes were blocked for 1 hour. After overnight incubation with primary antibody at 4°C, the membranes were washed and probed with fluorescent IRDye 800 CW goat anti-rabbit IgG (1:10,000), IRDye 800 CW goat anti-mouse (1:10,000), and IRDye 680 RD goat anti-mouse IgG (1:5,000) antibodies (Cell Signaling Technology). The membranes were then imaged with the Odyssey Infrared Imaging System (LI-COR Biosciences). […]
# HCT15 cells = experiment: Cell viability assay (CCK-8); assay type: cell-based; conditions: Homo sapiens, HCT-15
# Method: (§1) Cells were seeded into 96-well plates at a density of 1,500 cells per well. Cells were then cultivated at 37°C for different periods (0 hours, 24 hours, 48 hours, 72 hours, 96 hours). Upon measurement, 10 μL CCK-8 (Yeasen, 40203ES80) mixed with 100 μL serum-free medium was added to each well and incubated for 1 hour at 37°C. Plates were shaken, and optical density values were determined at 450 nm using a microplate reader (BioTek, Synergy Neo2).
# Panc-28 cells = experiment: Cell viability assay (CCK-8); assay type: cell-based; conditions: Panc-28 (KRAS-MUT); 72 hours
# Method: as §1
# H3122 cells = experiment: Cell viability assay (CCK-8); assay type: cell-based; conditions: Homo sapiens, NCI-H3122; H3122, Lung; Supplemental Table 4
# Method: as §1
# MRC5 cells = experiment: Cell viability assay (CCK-8); assay type: cell-based; conditions: Homo sapiens; MRC5 (Normal cells); 72 hours
# Method: Cells were seeded into 96-well plates at a density of 1,500 cells per well. […] Upon measurement, 10 μL CCK-8 (Yeasen, 40203ES80) mixed with 100 μL serum-free medium was added to each well and incubated for 1 hour at 37°C. Plates were shaken, and optical density values were determined at 450 nm using a microplate reader (BioTek, Synergy Neo2).
smiles,measurement,setting,value
COc1ccc(C2C(C#N)=C(N)Oc3[nH]ncc32)cc1COc1ccc(Cl)cc1 (centres unmarked) [RLY01],LRR Activity(%),REGγ-20S proteasome; 20S REGγ,48.0118% and 60.8247% and 54.1974%
same,"Boc-LRR-AMC (LRR) degradation, trypsin-like activity","REGγ-20S proteasome; cell-free, 11S-activated 20S proteasome, RLY01 20 μM",partially inhibit
same,"Suc-LLVY-AMC (LLVY) degradation, chymotrypsin-like activity","REGγ-20S proteasome; cell-free, 11S-activated (REGγ/α) 20S proteasome, RLY01 20 μM",essentially insensitive
same,interaction between REGγ and α7 (co-IP),[1],decreased the interaction between REGγ and α7 in a concentration-dependent manner
same,protein stability of p21,"p21; HeLa cells, 30 μM, 24 h",elevate the protein stability of p21 and hits
same,Relative p21 expression,p21,1.097 and 1.003 and 0.9423
same,IC50,"HCT15 cells; HCT15 (KRAS-MUT), 72 hours",5.53 µM
same,IC50,"HCT15 cells; HCT15, Colon, Supplemental Table 4",5.53 µM
same,IC50,Panc-28 cells,14.4 µM
same,IC50,H3122 cells,31.8 µM
same,IC50,MRC5 cells,29.5 µM

# From article PMC11910216, “Targeting ubiquitin-independent proteasome with small molecule increases susceptibility in pan-KRAS–mutant cancer models” (The Journal of Clinical Investigation, 2025)
